Experimental data taken from patent US6428823B1, “Biologically active aqueous fraction of an extract obtained from a mangrove plant Salvadora persica L” (Council of Scientific & Industrial Research, priority 2001, dated 2002).

Tested on: mammalian tissues
Test: pharmacological screening of purified compounds in mammalian tissues
Conditions: result in words
Source text: The invention further relates to methods of screening pharmacological activities of the said compounds in mammalian tissues.
vii) testing the pure compounds by using methods of pharmacology, and
Pharmacological Testing of Pure Compounds

Compound | biological activity shown by the extract
C=C(C)[C@@H]1CC[C@]2(CO)CC[C@]3(C)[C@H](CC[C@@H]4[C@@]5(C)CC[C@H](O)C(C)(C)[C@@H]5CC[C@]43C)[C@@H]12 [Betulin] | maintained
CCCCCCCCCCCCCCCC(=O)OC [Methyl palmitate] | maintained
